Reference: paper PMC12300231, “Ferroptosis Among the Antiproliferative Pathways Activated by a Lipophilic Ruthenium(III) Complex as a Candidate Drug for Triple-Negative Breast Cancer” (Pharmaceutics, 2025)

What was measured:
BT-549 = experiment: Cell survival index (MTT assay plus automated cell count), IC50; type: cell-based, Human; conditions: BT-549 TNBC cells, 48 h of incubation, mean ± SEM (n = 15)
Procedure: (§1) The antiproliferative activity was evaluated by estimating a “cell survival index” through targeted bioscreens, which joins cell viability assessment (by the MTT functional assay) with automated cell count (quantitative assay by automatic cell counter). Specifically, the “cell survival index” is calculated as the arithmetic average between the percentage values derived from the MTT assay and automated cell counting. For in vitro treatments, TNBC cell lines (MDA-MB-231, Hs 578T and BT-549) were seeded into 96-well culture plates at a density of 10^4 cells/well and allowed to grow for 24 h. The culture medium was then replaced with fresh medium, and the cells were treated with PalmiPyRu at concentrations ranging from 5 to 150 μM for different times, depending on the type of experiment. Cisplatin (cDDP) was used as a reference drug (positive control).
(§2) The same experimental setup in vitro was applied to assess the biocompatibility of PalmiPyRu on healthy control cell lines (HDFas, HHFKs, HaCaTs and […]). Cell viability was measured using the MTT assay (Sigma, Milan, Italy), which evaluates mitochondrial redox capacity to convert dissolved MTT into insoluble purple formazan. Briefly, after treatments, the medium was removed, and cells were incubated with 20 μL/well of MTT solution (5 mg/mL) for 1 h at 37 °C in a humidified 5% CO2 incubator. […] Finally, absorbance was measured at 550 nm using a microplate reader (ThermoFisher, Waltham, MA, USA). Total cell counting was determined using the TC20 automated cell counter (Bio-Rad, Milan, Italy), which provides accurate and reproducible total cell counts and a live/dead ratio in a single step using a specific dye exclusion assay (Trypan Blue). […] The mixture was loaded into disposable slide chamber and analyzed. The instrument provided a total cell count (cells/mL), live cell count and percent viability, automatically adjusting for dilution if Trypan Blue was detected. […]
(§3) All subsequent in vitro experiments were performed using PalmiPyRu IC50 concentrations, calculated as previously described.

Hs578T = experiment: as above; type: cell-based, Human; conditions: Hs578T TNBC cells, 48 h of incubation, mean ± SEM (n = 15)
Procedure: as §1, §2, §3

MDA-MB-231 = experiment: as above; type: cell-based, Human; conditions: MDA-MB-231 TNBC cells, 48 h of incubation, mean ± SEM (n = 15)
Procedure: as §1, §2, §3

HDFa = experiment: Cell survival index, biocompatibility on healthy cells; type: cell-based; conditions: 48 h of incubation, mean ± SEM (n = 15)
Procedure: as §1, §2, §3

HHFK = experiment: as above; type: cell-based; conditions: 48 h of incubation, mean ± SEM (n = 15)
Procedure: as §1, §2, §3

MCF-10A = experiment: as above; type: cell-based; conditions: MCF-10A healthy cells, 48 h of incubation, mean ± SEM (n = 15)
Procedure: as §1, §2, §3

HaCaT = experiment: as above; type: cell-based, Human; conditions: 48 h of incubation, mean ± SEM (n = 15)
Procedure: The antiproliferative activity was evaluated by estimating a “cell survival index” through targeted bioscreens, which joins cell viability assessment (by the MTT functional assay) with automated cell count (quantitative assay by automatic cell counter). Specifically, the “cell survival index” is calculated as the arithmetic average between the percentage values derived from the MTT assay and automated cell counting. For in vitro treatments, TNBC cell lines (MDA-MB-231, Hs 578T and BT-549) were seeded into 96-well culture plates at a density of 10^4 cells/well and allowed to grow for 24 h. […]
as §2, with “formazan.” for “formazan. Briefly, after treatments, the medium was removed, and cells were incubated with 20 μL/well of MTT solution (5 mg/mL) for 1 h at 37 °C in a humidified 5% CO2 incubator.”, “analyzed.” for “analyzed. The instrument provided a total cell count (cells/mL), live cell count and percent viability, automatically adjusting for dilution if Trypan Blue was detected.”

MDA-MB-231 cells = experiment: Mitochondria morphological analysis by confocal microscopy (MitoTracker Red); type: cell-based, Human; conditions: MDA-MB-231, 48 h, cDDP 10 µM or Erastin 10 µM, vs untreated cells
Procedure: Morphological changes in the mitochondria of MDA-MB-231 cells after treatments in vitro were determined using the MitoTracker Red CMXRos selective probe (Ex\Em 579/599 nm). Briefly, 1.5 × 10^4 cells were seeded in a four-well µ-Slide and incubated for 48 h. Then, cells were treated with the IC50 concentration of PalmiPyRu, cDDP (10 µM) or Erastin (10 µM), respectively, for a further 48 h. After incubations, cells were treated with FBS-free medium containing 100 nM MitoTracker at 37 °C for 20 min. To label the nuclei, a DAPI (Ex/Em 358/461 nm) solution (1:1000) was used at room temperature for 10 min of incubation. Fluorescence images were captured using a confocal microscope (Zeiss LSM 900 Airyscan 2) with a 63× magnification (oil-immersion objective).

Row | Structure (SMILES) | IC50 (BT-549) [µM] | IC50 (Hs578T) [µM] | IC50 (MDA-MB-231) [µM] | IC50 (HDFa) [µM] | IC50 (HHFK) [µM] | IC50 (MCF-10A) [µM] | IC50 (HaCaT) [µM] | Mitochondrial red fluorescent signal (MitoTracker) (MDA-MB-231 cells)
1 | [NH2][Pt]([NH2])([Cl])[Cl] [cDDP, cisplatin] | 15 ± 2 | 20 ± 4 | 11 ± 3 | 72 ± 4 | 93 ± 3 | 88 ± 3 | 50 ± 3 | significantly reduced
2 | CCOc1ccccc1-n1c(C(C)N2CCN(C(=O)COc3ccc(Cl)cc3)CC2)nc2ccccc2c1=O (stereo not drawn) [Erastin] | – | – | – | – | – | – | – | lowered the mitochondrial fluorescent signal
